ChEMBL document CHEMBL4814031, “In pursuit of a selective hepatocellular carcinoma therapeutic agent: Novel thalidomide derivatives with antiproliferative, antimigratory and STAT3 inhibitory properties” (Eur J Med Chem, 2021)
Active and inactive are the calls of the source. No cut-off for these calls is given here.

How the values were obtained:
[1] = tested on: BMOL-T; assay: Antiproliferative activity against mouse BMOL-T cells assessed as cell growth inhibition at 10 uM measured every 4 hrs for 3 days by IncuCyte zoom live cell analysis relative to control; assay type: functional; settings: time 3.0 day
[2] = Antiproliferative activity against mouse BMOL-NT cells assessed as cell growth inhibition at 10 uM measured every 4 hrs for 3 days by IncuCyte zoom live cell analysis relative to control; assay type: cell-based; settings: time 3 day; for inhibition at 72 h, 10 µM: BMOL-NT cells
[3] = Antiproliferative activity against mouse BMOL-NT cells assessed as cell growth by measuring doubling time at 10 uM measured every 4 hrs for 3 days by IncuCyte zoom live cell analysis (reference value: 18 to 19 hrs); assay type: cell-based; settings: 72 h, time 3 day
[4] = Antiproliferative activity against mouse BMOL-T cells assessed as cell growth by measuring doubling time at 10 uM measured every 4 hrs for 3 days by IncuCyte zoom live cell analysis (reference value: 14.3 to 15 hrs); assay type: functional; settings: time 3 day
[5] = Antiproliferative activity against mouse BMOL-T cells assessed as change in doubling time at 10 uM measured every 4 hrs for 3 days by IncuCyte zoom live cell analysis relative to control; assay type: functional; settings: time 3 day
[6] = Antiproliferative activity against mouse BMOL-NT cells assessed as change in doubling time at 10 uM measured every 4 hrs for 3 days by IncuCyte zoom live cell analysis relative to control; assay type: cell-based; settings: 72 h, time 3 day
[7] = Selectivity for antiproliferative activity against mouse BMOL-T cells over mouse BMOL-NT cells at 10 uM measured every 4 hrs for 3 days by IncuCyte zoom live cell analysis; settings: time 3 day

Structure (SMILES) | Activity [1] | Time [3] [h] | Time [4] [h] | Activity [5] [%] | other results
O=C1CCC(N2C(=O)c3cccc(Sc4ccc(C(F)(F)F)cc4)c3C2=O)C(=O)N1 (stereo not given) | inactive |  |  |  | 
O=C1CCC(N2C(=O)c3cccc(Nc4ccc5c(c4)CCCC5)c3C2=O)C(=O)N1 (stereo not given) | Active |  |  |  | inhibition at 72 h, 10 µM [2]: ≤ 10%
CC(C)c1ccc(Oc2cccc3c2C(=O)N(C2CCC(=O)NC2=O)C3=O)cc1 (stereo not given) |  | 17.5 | 15.4 | 5 | 
O=C1CCC(N2C(=O)c3cccc(Cc4ccccc4)c3C2=O)C(=O)N1 (stereo not given) |  | 17.7 | 13.8 |  | Activity [6]: 2%
CC(C)c1ccc(Cc2cccc3c2C(=O)N(C2CCC(=O)NC2=O)C3=O)cc1 (stereo not given) |  | 17.5 | 17 | 17 | 
CC(C)c1ccc(Sc2cccc3c2C(=O)N(C2CCC(=O)NC2=O)C3=O)cc1 (stereo not given) |  | 17.2 | 16.2 | 19 | Activity [6]: 3%
O=C1CCC(N2C(=O)c3ccccc3C2=O)C(=O)N1 (stereo not given) [THALIDOMIDE] |  | 18 | 15 |  | 
O=C1CCC(N2C(=O)c3cccc(Sc4ncccn4)c3C2=O)C(=O)N1 (stereo not given) |  |  |  |  | Activity ([2]; bmol-nt, 72 h, 10 µM): Non-Toxic
CC(C)Oc1ccc(Nc2cccc3c2C(=O)N(C2CCC(=O)NC2=O)C3=O)cc1 (stereo not given) | Active |  |  |  | 
O=C1CCC(N2C(=O)c3cccc(Nc4ccc(O)cc4)c3C2=O)C(=O)N1 (stereo not given) | Active |  |  |  | 
CC(C)c1ccc(S(=O)(=O)c2cccc3c2C(=O)N(C2CCC(=O)NC2=O)C3=O)cc1 (stereo not given) |  | 17.4 | 14.9 | 3 | Activity [6]: 3%
CCCc1ccc(Nc2cccc3c2C(=O)N(C2CCC(=O)NC2=O)C3=O)cc1 (stereo not given) | Active |  |  |  | 
O=C1CCC(N2C(=O)c3cccc(Oc4ccccc4)c3C2=O)C(=O)N1 (stereo not given) |  | 16.9 | 14.3 | 6 | 
O=C1CCC(N2C(=O)c3cccc(Nc4ccccc4)c3C2=O)C(=O)N1 (stereo not given) |  | 17.4 | 14.3 | 7 | 
Cc1ccccc1Nc1cccc2c1C(=O)N(C1CCC(=O)NC1=O)C2=O (stereo not given) | inactive |  |  |  | 
CNC(=O)c1cc(Oc2ccc(NC(=O)Nc3ccc(Cl)c(C(F)(F)F)c3)cc2)ccn1 [SORAFENIB] |  | 50 | 71 | 382 | Selectivity ratio [7]: 2.1; Activity [6]: 181%
CCc1ccc(Nc2cccc3c2C(=O)N(C2CCC(=O)NC2=O)C3=O)cc1 (stereo not given) | Active |  |  |  | inhibition at 72 h, 10 µM [2]: ≤ 10%
